Values joined by “and” are separate entries in the source; they are usually repeats but may differ in a detail not shown here. Equal entries are not always repeated.
Assays:
[1] = test system: TNF-α (TNF-alpha) production in Human Whole Blood; assay: Inhibition of TNF-alpha production in Human Whole Blood (MSD assay); type: cell-based
Procedure: This is an optional supplementary test, e.g. for potentially orally-administrable PDE4 inhibitors. Also, as the assay may measure the effect of PDE4 inhibitors after loss by protein binding, it might possibly also be relevant to externally-topically-administrable PDE4 inhibitors as protein-binding-loss of compound is possible during transport through the skin.
Test compounds are prepared as a ca. 10 mM stock solution in DMSO and a dilution series prepared in DMSO with 8 successive 3-fold dilutions, either directly from the 10 mM stock solution or from a more dilute solution in DMSO. The compound is added to assay plates using a Biomek Fx liquid handling robot.
Heparinised blood drawn from normal volunteers is dispensed (ca. 100 μl=ca. 100 ul) into microtitre plate wells containing ca. 0.5 or ca. 1.0 μl (ul, microlitres) of an appropriately diluted test compound solution. […] Plasma TNFα content is determined by electrochemiluminescence assay using the MSD technology (see below), the IGEN technology (see below) or by enzyme linked immunosorbant assay (ELISA) (see below). […]
For the Whole Blood assay, plates are washed after 2 hours shaking with a Skanwasher 300 version B (Skatron Instruments AS. PO Box 8, N-3401 Lier, Norway). […] About 150 μl (ul) of Read Buffer T (2×) is added to the plates, which are then read on a MSD Sector 6000. […]

PDE3 (from bovine aorta) = assay: PDE3 inhibition (FP or SPA general type of assay); type: biochemical; details: in the particular assays used
Text: PDE3 can be purified from bovine aorta as described by H. Coste and P. Grondin, “Characterisation of a novel potent and specific inhibitor of type V phosphodiesterase”, Biochem. Pharmacol., 1995, 50, 1577-1585.
The ability of compounds to inhibit catalytic activity at PDE4B or 4D (human recombinant), PDE3 (from bovine aorta), PDE5 (human recombinant) or PDE6 (from bovine retina) can optionally be determined by Scintillation Proximity Assay (SPA) in a 96-well format.
Test compounds (as a solution in DMSO, suitably about 2 microlitre (ul) volume of DMSO solution) are preincubated at ambient temperature (room temperature, e.g. 19-23° C.) in Wallac Isoplates (code 1450-514) with PDE enzyme in 50 mM Tris-HCl buffer pH 7.5, 8.3 mM MgCl2, 1.7 mM EGTA, 0.05% (w/v) bovine serum albumin for 10-30 minutes (usually 30 minutes). […] Bound radioactive product is measured using a WALLAC TRILUX 1450 Microbeta scintillation counter. […] Curves are analysed using ActivityBase and XLfit (ID Business Solutions Limited, 2 Ocean Court, Surrey Research Park, Guildford, Surrey GU2 7QB, United Kingdom). Results are expressed as pIC50 values.
The compound of the invention (e.g. as prepared in Example 1) has also been tested for PDE3, PDE5 and PDE6 inhibition, e.g. using (independently for each PDE type) either a Fluorescence Polarisation (FP) general type of assay or using an SPA general type of assay.

IC50 ([1]; Homo sapiens, n = about 3 or 4, LPS-stimulated, read-out: Whole Blood, Mean pIC50 (MSD assay) (converted)): ~0.398 nM
Whole Blood individual pIC50 test values (MSD assay) ([1]; individual measurements): ~9.19 and ~9.50 (2×) and > 9.82
Compound: CCc1nc2c(cnn2CC)c(NC2CCOCC2)c1CNC(=O)c1cc(C)no1 [Example 1, N-{[1,6-diethyl-4-(tetrahydro-2H-pyran-4-ylamino)-1H-pyrazolo[3,4-b]pyridin-5-yl]methyl}-3-methyl-5-isoxazolecarboxamide]
PDE4B pIC50 compared with PDE3 pIC50 (selectivity) (PDE3 (from bovine aorta)): inhibits PDE4B more strongly than it inhibits PDE3, PDE5 and PDE6

Reference: patent US20080255186A1, “Pyrazolo[3,4-B]Pyridine Compound, and Its Use as a Pde4 Inhibitor” (priority 2005, published 2008)
